# Laboratory results published in patent US5583000A, “Protease-binding compounds and methods of use” (priority 1993, dated 1996).
# pIC50: −log10 of the molar value. Read-outs that look alike come from different tables or passages of the source.
# Legend:
# HIV-2 protease = molecular target: T1, HIV-2 protease (Human immunodeficiency virus type 2 subtype A, UniProt P04584); test: biochemical; conditions: 1M NaCl
# T1 construct: the coding region of the 99-amino acid protease; made in house; host or cells: Saccharomyces cerevisiae strain AB110, plasmid pHIV2PR115
# Description: The decapeptide was synthesized by conventional solid-state methods. Reactions were carried out and fractionated by HPLC. Conversion of the decapeptide to the two pentapeptides was quantitated by integration of the peak areas and comparison to product standard curves.
# Enzymatic Inhibition. […] Each data point was done in triplicate and initial enzyme rates were fit to the Michaelis-Menten equation using a nonlinear regression program ("Enzfitter" from Biosoft).
# HIV-1 protease = HIV-1 protease (Human immunodeficiency virus type 1 group M subtype B, UniProt P03369); test: biochemical
# [1] = HIV-1 Protease IC50 (μM) 1M NaCl
# [2] = read-out: HIV-1 Protease IC50 (μM) 1M NaCl
# [3] = HIV-1 Protease IC50 (μM) 1M NaCl, 1M NaCl
# T1 sequence (P04584 514-612 limits assumed): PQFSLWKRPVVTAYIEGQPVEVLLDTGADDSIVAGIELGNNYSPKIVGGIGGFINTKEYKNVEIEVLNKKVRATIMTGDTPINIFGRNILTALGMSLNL
Structure (SMILES),CC50 at 6 h (in vitro) [µM],solubility (physchem) [µM],pIC50 (HIV-2 protease),HIV-1 Protease Therapeutic Index (LD50 /IC50) (HIV-1 protease),IC50 (HIV-1 protease; [1]) [µM],pIC50 (HIV-1 protease; 1M NaCl),HIV-1 Protease Therapeutic Index (LD50 /IC50) (HIV-1 protease; LD50/IC50),IC50 (HIV-2 protease; read-out: HIV-2 Protease IC50 (μM) 1M NaCl) [µM],IC50 (HIV-1 protease; [2]) [µM],IC50 (HIV-1 protease; [3]) [µM],inhibition of HIV-1 protease at the lower salt concentrations (HIV-1 protease),inhibition of HIV-1 protease compared with other compounds (HIV-1 protease)
"C[C@@H]1SC(CCCN2CCC(O)(c3ccc(Cl)cc3)CC2)(c2ccc(F)cc2)S[C@H]1C (relative stereo) [UCSF12, (trans-2,3-butanethioacetal)-4-[4-(p-chlorophenyl)-4-hydroxypiperidinyl]-4'-fluorobutyro-phenone]",35,< 250,4.30,0.5,350,,,,,,,
C[C@@H]1SC(CCCN2CCC(O)(c3ccc(Cl)cc3)CC2)(c2ccc(F)cc2)S[C@@H]1C (relative stereo) [UCSF64],25,< 50,4.54,,16,,,,,,,
"O=C(CCC[N+]1([O-])CCC(O)(c2ccc(Cl)cc2)CC1)c1ccc(F)cc1 (stereo not drawn) [UCSF3, 4-[4-(p-chlorophenyl)-4-hydroxy-N-oxopiperidinyl]-4'-fluorobutyrophenone]",> 500,< 250,3.87,> 2.5,100,,,,,,,
"ON=C(CCCN1CCC(O)(c2ccc(Cl)cc2)CC1)c1ccc(F)cc1 [UCSF4, 4-[4-(p-chlorophenyl)-4-hydroxypiperidinyl]-4'-fluorobutyrophenone oxime]",,> 250,3.94,0.7,100,,,,,,,
"C[N+]1(CCCC(=O)c2ccc(F)cc2)CCC(O)(c2ccc(Cl)cc2)CC1 (stereo not drawn) [UCSF5, 4-[4-(p-chlorophenyl)-4-hydroxy-N-methylpiperidinyl]-4'-fluorobutyrophenone]",> 500,> 250,< 3.00,> 6.3,79,,,,,,,
"CC(=O)OC1(c2ccc(Cl)cc2)CCN(CCCC(=O)c2ccc(F)cc2)CC1 [UCSF6, 4-[4-(p-chlorophenyl)-4-acetoxypiperidinyl]-4'-fluorobutyrophenone]",250,> 250,3.27,,,3.14,0.3,,,,,
"NN=C(CCCN1CCC(O)(c2ccc(Cl)cc2)CC1)c1ccc(F)cc1 [UCSF7, 4-[4-(p-chlorophenyl)-4-hydroxypiperidinyl]-4'-fluorobutyrophenone hydrazone]",,> 250,3.70,0.9,100,,,,,,,
"OC1(c2ccc(Cl)cc2)CCN(CCCC2(c3ccc(F)cc3)SCCCS2)CC1 [UCSF10, (1,3-propanethioacetal)-4-[4-(p-chlorophenyl)-4-hydroxypiperidinyl]-4'-fluorobutyrophenone]",30,< 100,4.06,2,15,,,,,,,
"O=C(CCCN1CC=C(c2ccc(Cl)cc2)CC1)c1ccc(F)cc1 [UCSF11, 4-[4-(p-chlorophenyl)]-N-[4-(4'-fluorobutyrophenone)]-1,2,5,6-tetrahydropyridine]",250,< 250,3.51,,,3.12,0.3,,,,,
OCCNN=C(CCCN1CCC(O)(c2ccc(Cl)cc2)CC1)c1ccc(F)cc1 [UCSF14],500,500,4.05,10,50,,,,,,,
"O=C(CCC[N+]1(CCc2ccccc2)CCC(O)(c2ccc(Cl)cc2)CC1)c1ccc(F)cc1 (stereo not drawn) [UCSF15, 4-[4-(p-chlorophenyl)-4-hydroxy-[N-(2-phenyl)ethyl]piperidinyl]-4'-fluorobutyrophenone]",,> 250,3.60,0.3,150,,,,,,,
"OC1(c2ccc(Cl)cc2)CCN(CCCC2(c3ccc(F)cc3)OCCO2)CC1 [UCSF16, (1,2-ethyloxoacetal)-4-[4-(p-chlorophenyl)-4-hydroxypiperidinyl]-4'-fluorobutyrophenone]",150,> 250,,2,,,,238,75,,,
"O=C(CCC[n+]1ccc(-c2ccc(Cl)cc2)cc1)c1ccc(F)cc1 [UCSF17, 4-[4-(p-chlorophenyl)l-N-[4-(4'-fluorobutyrophenone)]pyridinium bromide]",500,> 250,,,,2.92,0.4,,,,,
"OC1(c2ccc(Cl)cc2)CCN(CCCC2(c3ccc(F)cc3)SCc3ccccc3CS2)CC1 [UCSF18, (1,2-benzene-dimethanethioacetal)-4-[4-(p-chlorophenyl)-4-hydroxypiperidinyl]-4'-fluorobutyrophenone]",35,> 250,5.00,1.4,25,,,,,,,
O=C(CCCN1CCC(c2ccccc2)CC1)c1ccc(F)cc1 [UCSF19],,,3.49,,,,,,,250,,
"O=C(CCCN1CCC(O)(c2ccc(Cl)cc2)C(O)C1)c1ccc(F)cc1 (stereo not drawn) [UCSF20, 4-[4-(p-chlorophenyl)-3,4-dihydroxypiperidinyl)-4'-fluorobutyrophenone]",,> 250,,0.26,675,,,,,,,

Structure (SMILES),CC50 at 6 h (in vitro) [µM],solubility (physchem) [µM],pIC50 (HIV-2 protease),HIV-1 Protease Therapeutic Index (LD50 /IC50) (HIV-1 protease),IC50 (HIV-1 protease; [1]) [µM],pIC50 (HIV-1 protease; 1M NaCl),HIV-1 Protease Therapeutic Index (LD50 /IC50) (HIV-1 protease; LD50/IC50),IC50 (HIV-2 protease; read-out: HIV-2 Protease IC50 (μM) 1M NaCl) [µM],IC50 (HIV-1 protease; [2]) [µM],IC50 (HIV-1 protease; [3]) [µM],inhibition of HIV-1 protease at the lower salt concentrations (HIV-1 protease),inhibition of HIV-1 protease compared with other compounds (HIV-1 protease)
"OC1(c2ccc(Cl)cc2)CCN(CCCC2(c3ccc(F)cc3)SCc3cccc(c3)CS2)CC1 [UCSF21, (1,3-benzenedimethanethioacetal)-4-[4-(p-chlorophenyl)-4-hydroxypiperidinyl]-4'-fluorobutyrophenone]",> 500,< 250,4.12,> 20(10),25,,,,,,,
"OC1(c2ccc(Cl)cc2)CCN(CCCC2(c3ccc(F)cc3)SCc3ccc(cc3)CS2)CC1 [UCSF22, (1,4-benzenedimethanethioacetal)-4-[4-(p-chlorophenyl)-4-hydroxypiperidinyl]-4'-fluorobutyrophenone]",> 500,< 50,4.27,5(0.5),100,,,,,,,
"OC1(c2ccc(Cl)cc2)CCN(CCCC2(c3ccc(F)cc3)SCCCCS2)CC1 [UCSF23, (1,4-butanethioacetal)-4-[4-(p-chlorophenyl)-4-hydroxypiperidinyl]-4'-fluorobutyrophenone]",25,> 250,4.15,1.25,20,,,,,,,
"OC1(c2ccc(Cl)cc2)CCN(CCCC(O)(c2ccccc2)c2ccc(F)cc2)CC1 (stereo not drawn) [UCSF24, 4-[4-(p-chlorophenyl)-4-hydroxypiperidinyl]-1-phenyl-1-(p-fluorophenyl)-butan-1-ol]",25,> 200,,0.4,62,,,,,,,
OC1(c2ccc(Cl)cc2)CCN(CCCC(O)(Cc2ccccc2)c2ccc(F)cc2)CC1 (stereo not drawn) [UCSF25],20,,4.12,0.2,87,,,,,,,
O=C(CCCN1CCC(O)(c2ccccc2)CC1)c1ccc2ccccc2n1 [UCSF27],400,< 200,,2(1),,,,,198,,,
"OC1(c2ccccc2)CCN(CCCC2(c3ccc(F)cc3)OCCO2)CC1 [UCSF28, (1,2-ethyloxoacetal)-4-(4-phenyl-4-hydroxypiperidinyl)-4'-fluorobutyrophenone]",> 500,> 500,,1.2,410,,,,,,,
"OC1(c2ccccc2)CCN(CCCC2(c3ccccc3)OCCO2)CC1 [UCSF30, (1,2-ethyloxoacetal)-4-(4-phenyl-4-hydroxypiperidinyl)butyrophenone]",> 250,> 250,3.30,1,265,,,,,,,
"O=C(CCCN1CCC(O)(c2ccccc2)CC1)c1ccc(F)cc1 [UCSF31, 4-(4-phenyl-4-hydroxypiperidinyl)-4'-fluorobutyrophenone]",> 250,> 250,3.31,> 1.1,230,,,,,,,
"OC1(c2ccccc2)CCN(CCCC(O)(c2ccccc2)c2ccc3ccccc3n2)CC1 (stereo not drawn) [UCSF32, 4-(4-phenyl-4-hydroxypiperidinyl)-1-phenyl-1-[α-(2-azanaphthyl)]-butan-1-ol]",25,,4.10,0.4,60,,,,,,,
"OC1(c2ccc(Cl)cc2)CCN(CCCC(O)(c2ccccc2)c2ccc(-c3ccccc3)cc2)CC1 (stereo not drawn) [UCSF33, 4-[4-(p-chlorophenyl)-4-hydroxypiperidinyl)-1-phenyl-1-(p-phenylphenyl)-butan-1-ol]",10,< 50,5.15,1.4,7,,,,,,,
O=C(CCCN1CCC(O)(c2ccc(Cl)cc2)CC1)c1ccncc1 [UCSF35],> 500,> 500,,> 0.8,,,,,650,,,
O=C(CCCC1(O)CCC(O)(c2ccc(Cl)cc2)CC1)c1ccccc1 (stereo not drawn) [UCSF45],,,,,,,,,,> 1000,,
Cc1ccc(C2(CCC(c3ccccc3)N3CCC(O)(c4ccc(Cl)cc4)CC3)SCCS2)cc1 (stereo not drawn) [UCSF48],,,5.00,,7,,,,,,Very little inhibition,slightly better inhibitor than USCF42 at 1M NaCl
OCC1(c2ccccc2)CCN(CCCC2(c3ccc(F)cc3)OCCO2)CC1 [UCSF53],500,< 50,,,> 2500,,,,,,,
